# Values of other authors in article PMC9516332 (Frontiers in Oncology, 2022).
# Where two headings read alike, the source gives them in different places.
# How the values were obtained:
# Settings in all cases: cited from earlier work
# [1] = target: T1, panel of 255 wild-type kinases (Homo sapiens, UniProt O00141)
# T1 sequence (O00141 1-431): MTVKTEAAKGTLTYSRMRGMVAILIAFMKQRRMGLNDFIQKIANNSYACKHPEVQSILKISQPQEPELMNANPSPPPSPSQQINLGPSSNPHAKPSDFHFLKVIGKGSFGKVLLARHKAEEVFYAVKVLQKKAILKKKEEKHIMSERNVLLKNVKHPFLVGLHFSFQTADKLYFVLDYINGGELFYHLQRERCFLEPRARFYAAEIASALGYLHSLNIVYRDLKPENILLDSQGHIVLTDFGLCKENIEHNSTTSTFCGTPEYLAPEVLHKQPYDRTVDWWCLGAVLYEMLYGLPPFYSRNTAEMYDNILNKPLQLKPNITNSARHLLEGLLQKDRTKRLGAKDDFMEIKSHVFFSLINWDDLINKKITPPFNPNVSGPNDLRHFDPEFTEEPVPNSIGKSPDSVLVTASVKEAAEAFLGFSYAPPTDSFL
# [2] = target: panel of 255 wild-type kinases (Homo sapiens, UniProt P06213)
# [3] = target: panel of 255 wild-type kinases (Homo sapiens, UniProt P07333)
# [4] = target: panel of 255 wild-type kinases (Homo sapiens, UniProt P09769)
# [5] = target: panel of 255 wild-type kinases (Homo sapiens, UniProt P24723)
# [6] = target: panel of 255 wild-type kinases (Homo sapiens, UniProt P42684)
# [7] = target: T2, panel of 255 wild-type kinases (Homo sapiens, UniProt Q16832)
# T2 sequence (Q16832 22-855): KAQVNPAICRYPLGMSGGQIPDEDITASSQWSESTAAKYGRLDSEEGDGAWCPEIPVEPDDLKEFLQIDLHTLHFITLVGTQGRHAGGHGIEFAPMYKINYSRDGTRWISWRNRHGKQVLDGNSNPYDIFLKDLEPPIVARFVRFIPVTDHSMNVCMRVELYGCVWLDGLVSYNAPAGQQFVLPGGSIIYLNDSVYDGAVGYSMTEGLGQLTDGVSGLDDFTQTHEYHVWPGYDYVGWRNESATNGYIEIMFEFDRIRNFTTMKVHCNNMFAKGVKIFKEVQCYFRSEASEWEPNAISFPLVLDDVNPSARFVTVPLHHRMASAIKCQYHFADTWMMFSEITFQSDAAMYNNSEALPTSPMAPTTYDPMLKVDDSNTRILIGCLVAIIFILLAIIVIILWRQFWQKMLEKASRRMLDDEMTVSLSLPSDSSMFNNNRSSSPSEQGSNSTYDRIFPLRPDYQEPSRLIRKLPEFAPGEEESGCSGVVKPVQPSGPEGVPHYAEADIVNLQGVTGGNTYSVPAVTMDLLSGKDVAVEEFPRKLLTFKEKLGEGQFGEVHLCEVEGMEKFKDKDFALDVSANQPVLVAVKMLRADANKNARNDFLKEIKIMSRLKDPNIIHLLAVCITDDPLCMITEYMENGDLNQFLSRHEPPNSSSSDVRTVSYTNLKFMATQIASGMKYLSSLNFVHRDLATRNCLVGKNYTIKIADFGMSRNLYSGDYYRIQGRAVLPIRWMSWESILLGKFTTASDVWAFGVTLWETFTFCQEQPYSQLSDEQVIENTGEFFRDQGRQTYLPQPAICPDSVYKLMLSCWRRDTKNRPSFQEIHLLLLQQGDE
# [8] = target: panel of 255 wild-type kinases (Homo sapiens, UniProt Q86Z02)
# [9] = target: panel of 255 wild-type kinases (Homo sapiens, UniProt Q8TDX7)
# [10] = target: T3, panel of 255 wild-type kinases (Homo sapiens, UniProt Q9BXA7)
# T3 sequence (Q9BXA7 1-367): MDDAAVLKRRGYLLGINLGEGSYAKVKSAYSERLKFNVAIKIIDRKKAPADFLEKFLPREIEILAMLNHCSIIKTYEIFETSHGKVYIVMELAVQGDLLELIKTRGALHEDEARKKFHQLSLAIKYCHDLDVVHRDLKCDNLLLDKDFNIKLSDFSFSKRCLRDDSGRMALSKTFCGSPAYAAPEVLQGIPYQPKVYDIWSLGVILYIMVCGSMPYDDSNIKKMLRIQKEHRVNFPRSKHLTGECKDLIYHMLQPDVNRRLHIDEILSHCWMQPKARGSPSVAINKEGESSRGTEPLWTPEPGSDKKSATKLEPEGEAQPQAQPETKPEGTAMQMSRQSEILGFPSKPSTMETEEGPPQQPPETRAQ
# [11] = target: panel of 255 wild-type kinases (Homo sapiens, UniProt Q9NYA1)
# [12] = target: panel of 255 wild-type kinases (Homo sapiens, UniProt Q9UKE5)
# [13] = kinase SGK, 1 µmol/L single concentration, ref DOI: 10.1158/1535-7163.MCT-18-0877
# [14] = kinase INSR, 1 µmol/L single concentration, ref DOI: 10.1158/1535-7163.MCT-18-0877
# [15] = kinase FMS, 1 µmol/L single concentration, ref DOI: 10.1158/1535-7163.MCT-18-0877
# [16] = kinase FGR, 1 µmol/L single concentration, ref DOI: 10.1158/1535-7163.MCT-18-0877
# [17] = kinase PKCη, 1 µmol/L single concentration, ref DOI: 10.1158/1535-7163.MCT-18-0877
# [18] = ARG kinase assay, 1 µmol/L single concentration, ref DOI: 10.1158/1535-7163.MCT-18-0877
# [19] = kinase DDR2, 1 µmol/L single concentration, ref DOI: 10.1158/1535-7163.MCT-18-0877
# [20] = kinase HIPK1, 1 µmol/L single concentration, ref DOI: 10.1158/1535-7163.MCT-18-0877
# [21] = NEK7, 1 µmol/L single concentration, ref DOI: 10.1158/1535-7163.MCT-18-0877
# [22] = kinase TSSK1, 1 µmol/L single concentration, ref DOI: 10.1158/1535-7163.MCT-18-0877
# [23] = kinase SPHK1, 1 µmol/L single concentration, ref DOI: 10.1158/1535-7163.MCT-18-0877
# [24] = kinase TNIK, 1 µmol/L single concentration, ref DOI: 10.1158/1535-7163.MCT-18-0877
SMILES,"%-inhibition at 1 µmol/L, SGK [1, 13]","%-inhibition at 1 µmol/L, INSR [2, 14]","%-inhibition at 1 µmol/L, FMS [3, 15]","%-inhibition at 1 µmol/L, FGR [4, 16]","%-inhibition at 1 µmol/L, PKCη [5, 17]","%-inhibition ARG [6, 18]","%-inhibition at 1 µmol/L, DDR2 [7, 19]","%-inhibition at 1 µmol/L, HIPK1 [8, 20]","%-inhibition, NEK7 [9, 21]","%-inhibition at 1 µmol/L, TSSK1 [10, 22]","%-inhibition at 1 µmol/L, SPHK1 [11, 23]","%-inhibition at 1 µmol/L, TNIK [12, 24]","%-inhibition at 1 µmol/L, TNIK [12]",further results
CC#CC(=O)N1CCC[C@H]1c1nc(-c2ccc(C(=O)Nc3ccccn3)cc2)c2c(N)nccn12 [acalabrutinib],-5%,-4.67%,8%,3%,-3.18%,3.53%,6%,-15%,-11%,-7%,-3%,-0.812%,,
CCc1cc2c(cc1N1CCC(N3CCOCC3)CC1)C(C)(C)c1[nH]c3cc(C#N)ccc3c1C2=O [alectinib],12%,83%,19%,40%,10%,1%,8%,2.52%,-1.33%,22%,-10%,31%,,
COc1cc(N2CCC(N3CCN(C)CC3)CC2)ccc1Nc1ncc(Cl)c(Nc2ccccc2P(C)(C)=O)n1 [brigatinib],,,,,,,,,,,,,19%,"%-inhibition at 1 µmol/L, SGK [1]: 4.76%; %-inhibition at 1 µmol/L, INSR [2]: 101%; %-inhibition at 1 µmol/L, FMS [3]: 100%; %-inhibition at 1 µmol/L, FGR [4]: 52%; %-inhibition at 1 µmol/L, PKCη [5]: 17%; %-inhibition ARG [6]: 55%; %-inhibition at 1 µmol/L, DDR2 [7]: 60%; %-inhibition at 1 µmol/L, HIPK1 [8]: 11%; %-inhibition, NEK7 [9]: 1.23%; %-inhibition at 1 µmol/L, TSSK1 [10]: 101%; %-inhibition at 1 µmol/L, SPHK1 [11]: -4%"
Cc1cc(Nc2ncc(Cl)c(Nc3ccccc3S(=O)(=O)C(C)C)n2)c(OC(C)C)cc1C1CCNCC1 [ceritinib],2%,102%,55%,5%,5.3%,-1.08%,12%,12%,-0.251%,101%,-13%,25%,,
O=C(c1ccc(F)c(F)c1Nc1ccc(I)cc1F)N1CC(O)([C@@H]2CCCCN2)C1 [cobimetinib],-19%,2.48%,5%,-1.29%,-2%,-1.54%,0.567%,6.62%,1.68%,7%,-5.63%,1.06%,,
C[C@@H](Oc1cc(-c2cnn(C3CCNCC3)c2)cnc1N)c1c(Cl)ccc(F)c1Cl [crizotinib],,,,,,,,,,,,,11%,"%-inhibition at 1 µmol/L, SGK ([1]; kinase SGK, 1 µmol/L single concentration, ref DOI: 10.1371/journal.pone.0092146): 1.46%; %-inhibition at 1 µmol/L, INSR ([2]; kinase INSR, 1 µmol/L single concentration, ref DOI: 10.1371/journal.pone.0092146): 84%; %-inhibition at 1 µmol/L, FMS ([3]; kinase FMS, 1 µmol/L single concentration, ref DOI: 10.1371/journal.pone.0092146): 92%; %-inhibition at 1 µmol/L, FGR ([4]; kinase FGR, 1 µmol/L single concentration, ref DOI: 10.1371/journal.pone.0092146): 70%; %-inhibition at 1 µmol/L, PKCη ([5]; kinase PKCη, 1 µmol/L single concentration, ref DOI: 10.1371/journal.pone.0092146): -8%; %-inhibition ARG ([6]; ARG kinase assay, 1 µmol/L single concentration, ref DOI: 10.1371/journal.pone.0092146): 80%; %-inhibition at 1 µmol/L, DDR2 ([7]; kinase DDR2, 1 µmol/L single concentration, ref DOI: 10.1371/journal.pone.0092146): 88%; %-inhibition at 1 µmol/L, HIPK1 ([8]; kinase HIPK1, 1 µmol/L single concentration, ref DOI: 10.1371/journal.pone.0092146): -7%; %-inhibition, NEK7 ([9]; NEK7, 1 µmol/L single concentration, ref DOI: 10.1371/journal.pone.0092146): -5.3%; %-inhibition at 1 µmol/L, TSSK1 ([10]; kinase TSSK1, 1 µmol/L single concentration, ref DOI: 10.1371/journal.pone.0092146): 21%; %-inhibition at 1 µmol/L, SPHK1 ([11]; kinase SPHK1, 1 µmol/L single concentration, ref DOI: 10.1371/journal.pone.0092146): -14%"
